Results published in ChEMBL document CHEMBL1142159, “Aph(3')-IIc, an aminoglycoside resistance determinant from Stenotrophomonas maltophilia” (2007).
In brackets after ≈: the same amount, converted by molar mass.

Tests used:
[1] = system: Stenotrophomonas maltophilia; assay: Antimicrobial activity against Stenotrophomonas maltophilia K279a mutant; assay type: functional
Escherichia coli [2] = settings: DH5alpha
Escherichia coli [3] = settings: DH5alpha; remark: listed apart in the source
[4] = system: Stenotrophomonas maltophilia; assay: Antimicrobial activity against Stenotrophomonas maltophilia K279a (aph FS) mutant; assay type: functional
Escherichia coli [5] = settings: DH5alpha; remark: listed apart in the source
Escherichia coli [6] = settings: DH5alpha; remark: listed apart in the source
Escherichia coli [7] = assay: Antimicrobial activity against recombinant Escherichia coli DH5alpha expressing pBAD; assay type: functional
Escherichia coli [8] = assay: Antimicrobial activity against recombinant Escherichia coli DHalpha expressing pBAD [aph(3')-2]; assay type: functional; settings: DH5alpha
Escherichia coli [9] = assay: Antimicrobial activity against recombinant Escherichia coli DH5-alpha expressing pBAD [aph(3')-2] in the presence of arabinose; assay type: functional; settings: DH5alpha
Escherichia coli [10] = assay: Antimicrobial activity against recombinant Escherichia coli DH5-alpha expressing pBAD in the presence of arabinose; assay type: functional; settings: DH5alpha

Compound	MIC [1] [µg/mL]	MIC (Escherichia coli [2]) [µg/mL]	MIC (Escherichia coli [3]) [µg/mL]	MIC [4] [µg/mL]	MIC (Escherichia coli [5]) [µg/mL]	MIC (Escherichia coli [6]) [µg/mL]	MIC (Escherichia coli [7]) [µg/mL]	MIC (Escherichia coli [8]) [µg/mL]	MIC (Escherichia coli [9]) [µg/mL]	MIC (Escherichia coli [10]) [µg/mL]
butirosin	8	0.125	0.125	1	4	0.125	–	–	–	–
CN[C@@H]1[C@@H](O)[C@@H](O[C@@H]2[C@@H](O)[C@H](O[C@H]3OC(CN)=CC[C@H]3N)[C@@H](N)C[C@H]2N)OC[C@]1(C)O [SISOMICIN]	8 (≈ 17.9 µM)	–	–	8 (≈ 17.9 µM)	–	–	0.125	0.125	0.125	0.125
NC[C@H]1O[C@H](O[C@H]2[C@H](O)[C@@H](O[C@H]3O[C@H](CO)[C@@H](O)[C@H](N)[C@H]3O)[C@H](N)C[C@@H]2N)[C@H](O)[C@@H](O)[C@@H]1O [KANAMYCIN]	256 (≈ 528 µM)	–	–	8 (≈ 16.5 µM)	–	–	–	–	–	–
NC[C@H]1O[C@H](O[C@H]2[C@H](O)[C@@H](O[C@H]3O[C@H](CO)[C@@H](O)[C@H](N)[C@H]3O)[C@H](N)C[C@@H]2N)[C@H](N)C[C@@H]1O [TOBRAMYCIN]	32 (≈ 68.4 µM)	–	–	32 (≈ 68.4 µM)	–	–	0.5	0.5	8	0.5
NC[C@@H]1O[C@H](O[C@H]2[C@@H](O)[C@H](O[C@@H]3[C@@H](O)[C@H](N)C[C@H](N)[C@H]3O[C@H]3O[C@H](CN)[C@@H](O)[C@H](O)[C@H]3N)O[C@@H]2CO)[C@H](N)[C@@H](O)[C@@H]1O [FRAMYCETIN]	512 (≈ 833 µM)	–	–	64 (≈ 104 µM)	–	–	0.5	0.5	64	0.5
NC[C@@H]1O[C@H](O[C@H]2[C@@H](O)[C@H](O[C@@H]3[C@@H](O)[C@H](N)C[C@H](N)[C@H]3O[C@H]3O[C@H](CO)[C@@H](O)[C@H](O)[C@H]3N)O[C@@H]2CO)[C@H](N)[C@@H](O)[C@@H]1O [PAROMOMYCIN]	256 (≈ 416 µM)	–	–	64 (≈ 104 µM)	–	–	0.25	0.25	128	0.25
NC[C@@H]1O[C@H](O[C@H]2[C@@H](O)[C@H](O[C@@H]3[C@@H](O)[C@H](N)C[C@H](N)[C@H]3O[C@H]3O[C@H](CO)[C@@H](O)C[C@H]3N)O[C@@H]2CO)[C@H](N)[C@@H](O)[C@@H]1O[C@H]1O[C@H](CO)[C@@H](O)[C@H](O)[C@@H]1O [LIVIDOMYCIN]	128 (≈ 168 µM)	–	–	128 (≈ 168 µM)	–	–	4	4	8	4
NCC[C@H](O)C(=O)N[C@@H]1C[C@H](N)[C@@H](O[C@H]2O[C@H](CN)[C@@H](O)[C@H](O)[C@H]2O)[C@H](O)[C@H]1O[C@H]1O[C@H](CO)[C@@H](O)[C@H](N)[C@H]1O [AMIKACIN]	64 (≈ 109 µM)	–	–	64 (≈ 109 µM)	–	–	0.5	0.5	4	0.5
GENTAMICIN	16	1	1	16	1	1	–	–	–	–
